Data: publication PMC9936496, “Azobenzene-Based Amino Acids for the Photocontrol of Coiled-Coil Peptides” (Bioconjugate Chemistry, 2023)
pKd: −log10 of the molar value. Like-named read-outs stand apart in the source and are kept apart here. Starred links: 1 amine or outer side, 2 acyl side, 3 side chain; linkers in the order of their positions; H or OH if unused. Non-standard residues stand in square brackets, D forms with d. Residues, ends and D or L forms follow the SMILES beside them. X1 = O=C([C@@H](N[*:1])c1ccc(N=Nc2ccccc2)cc1)[*:2]

Assays:
[1] = cited from earlier work
[2] = parameters: method as in 2 sources, ref 29 = [29]; PMID 16287231; doi:10.1021/bc049724g; Nakayama K.; Endo M.; Majima T. A Hydrophilic Azobenzene-Bearing Amino Acid for Photochemical Control of a Restriction Enzyme BamHI . Bioconjugate Chem. 2005 , 16 , 1360 – 1366 . 10.1021/bc049724g . ||| ref 33 = [33]; PMID 31495713; doi:10.1016/j.chembiol.2019.08.006; Kneuttinger A. C.; Straub K.; Bittner P.; Simeth N. A.; Bruckmann A.; Busch F.; Rajendran C.; Hupfeld E.; Wysocki V. H.; Horinek D.; et al. Light Regulation of Enzyme Allostery through Photo; settings: cited from earlier work
[3] = system: E3GY; experiment: CD thermal unfolding curves fitted to a dimeric coiled-coil binding model; settings: coiled coil with E3GY; for Kf (folding constant) / pKd: binding model at 20 °C; for pKd: read-out: Ku (unfolding constant)
Method: CD melting curves measured at different concentrations were fitted to a coiled-coil binding model (Figures S2 and S3).[39]
CD spectra were recorded on a Jasco J-815 CD spectrometer fitted with a Peltier temperature controller. Spectra were recorded in a 2 mm quartz cuvette at 20 °C using either PBS or low-salt buffer (2 mM NaCl, 10 mM phosphate) at pH 7.4. Spectra were recorded between 190 and 280 nm with 1 nm intervals at a scan rate of 100 nm/min with five subsequent spectra averaged to minimize noise. […] Thermal melting curves were generated by recording θ222nm between 5 and 90 °C at a speed of 1 °C/min. If irradiated samples were used, samples were reilluminated every 30 min. Melting curves were measured at four different concentrations and fitted using the Fitdis software package.[39]

[4] = format: physicochemical; settings: K3-APgly in PBS versus 10 in MeCN
Method: For the potential application of K3-APgly in an active system, for example, for membrane fusion, the stability of the photoswitch to repeated light exposures (photocycling) is required. […] Finally, the peptide was irradiated with the 340 nm PSS and allowed to thermally relax, showing 65% recovery in 69 h.
Figure 4 Photocycling of K3-APgly between the dark-adapted, 340 and 435 nm PSS (left), thermal relaxation of the peptide after […] (middle) and distribution of the absorbance in the different states during cycling (right).

[5] = Thermal relaxation of Fmoc-APgly from cis to trans followed by HPLC; format: physicochemical; settings: after irradiation with 340 nm light, in MeCN at 20 °C
Excerpt: (§1) Figure 3 HPLC analysis of the photoswitching behavior of Fmoc-APgly, and the effect of azobenzene isomerization in peptide K3-APgly. (A) Chromatography traces of Fmoc-APgly in the dark state and after irradiation with different wavelengths of light, complete traces can be found in Figure S5. (B) Thermal relaxation of Fmoc-APgly from cis to trans as followed by HPLC. (C) Percentage of the trans and cis isomers in solution at the different PSSs; error bars indicate difference in deviation between repeat samples. (D) UV–vis spectra showing the spectra of K3-APgly in the dark and after irradiation with 340 or 435 nm light. (E) CD spectra showing the effect of photoisomerization on the structure of K3-Apgly by itself and as a coiled-coil with E3GY. […] Illumination and relaxation studies of the amino acid were performed in MeCN at 20 °C. Peptide spectra were recorded at 20 °C in PBS with [peptide] = 50 μM. […]
(§2) Analytical HPLC was performed using a Shimadzu Prominence-i LC-2030C 3D system fitted with a 4.6 × 50 mm Phenomenex Kinetex Evo C18 column. The isomeric ratio of 10 was quantified using a linear gradient of 10–90% MeCN in water containing 0.1% TFA as buffer. For each measurement, 2 μL of a 200 mM solution of 10 was injected, and measurements were repeated three times for accuracy.

[6] = HPLC quantification of trans/cis isomer ratio at photostationary states; format: physicochemical; settings: measurements repeated three times
Method: As azobenzene photoswitches based on phenylglycine are not known in the literature, the photoswitching behavior of Fmoc-APgly (10) was analyzed first in order to assess its suitability as a photoswitch (Figure 3A–C). […] The largest ratio of […]-to-cis isomers via photoisomerization was achieved through irradiation with 385 nm light (83.2 ± 0.2% […]), with higher wavelengths showing very similar distributions.
as §1, §2

[7] = 340 nm irradiated state (predominantly cis)
[8] = dark state (predominantly trans)

N[C@@H](Cc1ccc(N=Nc2ccccc2)cc1)C(=O)O [APhe1, Phenylazo-phenylalanine]
reported half-life of thermal relaxation [1]: 26.67 h
PSS, cis isomer ([2]; using a LED light source): 89%
PSS, cis isomer ([2]; using a mercury lamp): 79%

N[C@@H](Cc1ccc(N=Nc2ccc(C(=O)O)cc2)cc1)C(=O)O [APhe2]
reported half-life of thermal relaxation [1]: 35 h
PSS, cis isomer ([2]; using a mercury lamp): 81%

CC[C@H](C)[C@H](NC(=O)[C@H](CCCCN)NC(C)=O)C(=O)N[C@@H](C)C(=O)N[C@@H](C)C(=O)N[C@@H](CC(C)C)C(=O)N[C@@H](CCCCN)C(=O)N[C@@H](CCC(=O)O)C(=O)N[C@@H](CCCCN)C(=O)N[C@H](C(=O)N[C@@H](C)C(=O)N[C@@H](C)C(=O)N[C@@H](CC(C)C)C(=O)N[C@@H](CCCCN)C(=O)N[C@@H](CCC(=O)O)C(=O)N[C@@H](CCCCN)C(=O)N[C@H](C(=O)N[C@@H](C)C(=O)N[C@@H](C)C(=O)N[C@@H](CC(C)C)C(=O)N[C@@H](CCCCN)C(=O)N[C@@H](CCC(=O)O)C(N)=O)[C@@H](C)CC)c1ccc(N=Nc2ccccc2)cc1 [K3-APgly] (Ac-KIAALKEK[X1]AALKEKIAALKE-NH2)
Kf (folding constant) [3, 7]: 2.97 × 10^5 M^–1
pKd [3, 7]: 5.47
Kf (folding constant) [3, 8]: 1.38 × 10^6 M^–1
pKd [3, 8]: 6.14
dark/340 nm PSS (fold difference in folding constant / binding affinity) ([3]; ratio dark state to 340 nm PSS, 20 °C): 4.65
thermal relaxation, times slower than that observed for 10 in MeCN [4]: 1.6

O=C(N[C@H](C(=O)O)c1ccc(N=Nc2ccccc2)cc1)OCC1c2ccccc2-c2ccccc21 [compound 10, N-Fmoc-4-(phenylazo)-L-phenylglycine]
half-life of thermal relaxation cis to trans [5]: 28.17 h
half-life of thermal relaxation cis to trans ([5]; same value in hours): ≈ 28 h
trans isomer ([6]; dissolved in MeCN, kept under dark conditions): 94.2 ± 0.2%
cis isomer ([6]; irradiated with 340 nm light, MeCN, 20 °C): 91.3 ± 0.6%
trans isomer ([6]; irradiation with 385 nm light, MeCN, 20 °C): 83.2 ± 0.2%
